IC50 data for 27 compounds are collected here from patent publication US20240239775A1, “FXR REGULATOR, PREPARATION METHOD THEREFOR, PHARMACEUTICAL COMPOSITION THEREOF AND USE THEREOF” (QINGDAO RUIJI MEDICAL TECHNOLOGY CO., LTD., priority 2021, published 2024).

The target of the first experiment is T1, FXR (Homo sapiens, UniProt Q96RI1).
T1 construct: 5 μL of 20 nM FXR-LBD Complete Coregulator buffer G; purchased ThermoFisher PV4833
T1 sequence (Q96RI1 262-486 limits assumed): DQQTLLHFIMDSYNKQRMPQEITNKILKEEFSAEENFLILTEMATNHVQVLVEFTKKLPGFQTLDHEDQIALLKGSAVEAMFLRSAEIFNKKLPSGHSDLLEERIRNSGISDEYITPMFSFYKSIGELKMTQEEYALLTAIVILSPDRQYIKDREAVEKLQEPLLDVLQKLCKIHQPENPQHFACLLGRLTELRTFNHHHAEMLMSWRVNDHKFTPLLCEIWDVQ
Kind of experiment: FXR antagonist screening by TR-FRET (LanthaScreen TR-FRET FXR co-activation assay kit). To be noted: Table 1.1, FXR antagonistic activity; TR-FRET with CDCA; geometric means of at least two independent runs. Type of experiment: biochemical. As to the method: FXR activity was evaluated by time-resolved fluorescence resonance energy transfer (TR-FRET) assay, using LanthaScreen™ TR-FRET FXR co-activation assay kit (ThermoFisher, Cat. PV4833). For agonist screening, 10 μL of Complete Coregulator buffer G containing the corresponding concentration of the compound to be tested, 5 μL of 20 nM FXR-LBD Complete Coregulator buffer G, and 5 μL of 2.0 μM Fluorescein-SRC2-2/20 nM Tb-anti-GST antibody Complete Coregulator buffer G were added to each well of a 384-well black plate (Coring) in sequence. […] Three duplicate wells were set up for each compound, with CDCA as the positive compound and DMSO as the solvent control. For antagonist screening, 5 μL of Complete Coregulator buffer G containing the corresponding concentration of the compound to be tested, 5 μL of 20 nM FXR-LBD Complete Coregulator buffer G, 5 μL of 200 μM CDCA FXR-LBD Complete Coregulator buffer G, and 5 μL of 2.0 μM Fluorescein-SRC2-2/20 nM Tb-anti-GST antibody Complete Coregulator buffer G were added to each well of a 384-well black plate (Coring) in sequence and incubated at room temperature for 10 h. Following operations were the same as those for agonist screening
On the technique in general: TR-FRET usually uses a lanthanide donor and a delayed reading to cut background.
The compound `CCOC(=O)c1oc2ccc(S(=O)(=O)N(CCc3ccccc3)Cc3ccccc3)cc2c1C` [Example F27-S8, ethyl 5-(N-benzyl-N-phenethylsulfamoyl)-3-methylbenzofuran-2-carboxylate] displayed an IC50 of 50 to 100 µM. With `Cc1c(C(=O)O)oc2ccc(S(=O)(=O)N(CCc3ccccc3)c3ccccc3)cc12` [Example F27-S10, 3-methyl-5-(N-phenethyl-N-phenylsulfamoyl)benzofuran-2-carboxylic acid], the IC50 was in the range of 50 to 100 µM. The same measure, in the same setting: for `Cc1c(C(=O)O)oc2ccc(S(=O)(=O)N(CCc3ccccc3)CCc3ccccc3)cc12` [Example F27-S13, 3-methyl-5-(N,N-diphenylethylsulfamoyl)benzofuran-2-carboxylic acid] the value was 10 to 50 µM.

In turn, `Cc1c(C(=O)O)oc2ccc(S(=O)(=O)N(CCc3ccccc3)Cc3ccc(Br)cc3)cc12` [Example F27-S30, 3-methyl-5-(N-(4-bromobenzyl)-N-phenethylsulfamoyl)benzofuran-2-carboxylic acid] came in with an IC50 of 10 to 50 µM. As to `Cc1c(C(=O)O)oc2ccc(S(=O)(=O)N(CCc3ccccc3)Cc3ccc(C(=O)OC(C)(C)C)cc3)cc12` [Example F27-S40, 3-methyl-5-(N-(4-(tert-butoxycarbonyl)benzyl)-N-phenethylsulfamoyl)benzofuran-2-carboxylic acid], the IC50 lay in the range of 10 to 50 µM. In turn, `Cc1c(C(=O)O)oc2ccc(S(=O)(=O)N(CCc3ccccc3)Cc3cccc4cccnc34)cc12` [Example F27-S44, 3-methyl-5-(N-(quinolin-8-ylmethyl)-N-phenethylsulfamoyl)benzofuran-2-carboxylic acid] displayed an IC50 of 10 to 50 µM. Compound `Cc1c(C(=O)O)oc2ccc(S(=O)(=O)N(CCc3ccccc3)c3ccc(N4CCN(S(C)(=O)=O)CC4)cc3)cc12` [Example F27-S72, 3-methyl-5-(N-(4-(4-(methylsulfonyl)piperazin-1-yl)phenyl)-N-phenethylsulfamoyl)benzofuran-2-carboxylic acid] returned a half-maximal inhibitory concentration (IC50) of 50 to 100 µM. The same measure, in the same setting: for `Cc1c(C(=O)O)oc2ccc(S(=O)(=O)N(CCc3ccccc3)Cc3ccc(N4CCN(C)CC4)cc3)cc12` [Example F27-S80, 3-methyl-5-(N-(4-(4-methylpiperazin-1-yl)benzyl)-N-phenethylsulfamoyl)benzofuran-2-carboxylic acid] the value was 50 to 100 µM; for `Cc1c(C(=O)O)oc2ccc(S(=O)(=O)N(CCc3ccccc3)Cc3ccc(N4CCN(C(=O)OC(C)(C)C)CC4)cc3)cc12` [Example F27-S81, 3-methyl-5-(N-(4-(4-(tert-butoxycarbonyl)piperazin-1-yl)benzyl)-N-phenethylsulfamoyl)benzofuran-2-carboxylic acid], 10 to 50 µM; for `Cc1c(C(=O)O)oc2ccc(S(=O)(=O)N(CCc3ccccc3)Cc3ccc(Oc4ccccc4)cc3)cc12` [Example F27-S86], 10 to 50 µM.

`Cc1c(C(=O)O)oc2ccc(S(=O)(=O)N(CCc3ccccc3)Cc3ccccc3N3CCN(C(=O)OC(C)(C)C)CC3)cc12` [Example F27-S87, 3-methyl-5-(N-(2-(4-(tert-butoxycarbonyl)piperazin-1-yl)benzyl)-N-phenethylsulfamoyl)benzofuran-2-carboxylic acid] had an IC50 of 0.1 to 10 µM.

Staying with this experiment, now noted: Table 1.2, FXR antagonistic activity; TR-FRET with CDCA; geometric means of at least two independent runs.
Regarding `Cc1ccc(C(=O)N2CCN(c3ccccc3N(CCc3ccccc3)S(=O)(=O)c3ccc4oc(C(=O)O)c(C)c4c3)CC2)cc1` [Example F27-S106, 3-methyl-5-(N-(2-(4-(4-methylbenzoyl)piperazin-1-yl)phenyl)-N-phenethylsulfamoyl)benzofuran-2-carboxylic acid], the IC50 was in the range of 0.1 to 10 µM. Still for that read-out and setting: for `Cc1ccccc1C(=O)N1CCN(c2ccccc2N(CCc2ccccc2)S(=O)(=O)c2ccc3oc(C(=O)O)c(C)c3c2)CC1` [Example F27-S107, 3-methyl-5-(N-(2-(4-(2-methylbenzoyl)piperazin-1-yl)phenyl)-N-phenethylsulfamoyl)benzofuran-2-carboxylic acid] the value was 0.1 to 10 µM. With `Cc1cccc(C(=O)N2CCN(c3ccccc3N(CCc3ccccc3)S(=O)(=O)c3ccc4oc(C(=O)O)c(C)c4c3)CC2)c1` [Example F27-S108, 3-methyl-5-(N-(2-(4-(3-methylbenzoyl)piperazin-1-yl)phenyl)-N-phenethylsulfamoyl)benzofuran-2-carboxylic acid], the IC50 lay in the range of 0.1 to 10 µM.

The compound `CC(=O)Nc1ccc(C(=O)N2CCN(c3ccccc3N(CCc3ccccc3)S(=O)(=O)c3ccc4oc(C(=O)O)c(C)c4c3)CC2)cc1` [Example F27-S109, 5-(N-(2-(4-(4-acetamidobenzoyl)piperazin-1-yl)phenyl)-N-phenethylsulfamoyl)-3-methylbenzofuran-2-carboxylic acid] returned a concentration for half-maximal inhibition (IC50) of 0.1 to 10 µM. For the compound `Cc1c(C(=O)O)oc2ccc(S(=O)(=O)N(CCc3ccccc3)c3ccccc3N3CCN(C(=O)c4ccc(C(F)(F)F)cc4)CC3)cc12` [Example F27-S110, 3-methyl-5-(N-phenethyl-N-(2-(4-(4-(trifluoromethyl)benzoyl)piperazin-1-yl)phenyl)sulfamoyl)benzofuran-2-carboxylic acid], the IC50 lay in the range of 0.1 to 10 µM. The same measure, in the same setting: with `Cc1c(C(=O)O)oc2ccc(S(=O)(=O)N(CCc3ccccc3)c3ccccc3N3CCN(C(=O)c4ccc(F)cc4)CC3)cc12` [Example F27-S112, 5-(N-(2-(4-(4-fluorobenzoyl)piperazin-1-yl)phenyl)-N-phenethylsulfamoyl)-3-methylbenzofuran-2-carboxylic acid] the figure was 0.1 to 10 µM; with `Cc1c(C(=O)O)oc2ccc(S(=O)(=O)N(CCc3ccccc3)c3ccccc3N3CCN(C(=O)c4ccc(NC(=O)OC(C)(C)C)cc4)CC3)cc12` [Example F27-S113], 0.1 to 10 µM; with `Cc1c(C(=O)O)oc2ccc(S(=O)(=O)N(CCc3ccccc3)c3ccccc3N3CCN(C(=O)c4ccc([N+](=O)[O-])cc4)CC3)cc12` [Example F27-S114, 3-methyl-5-(N-(2-(4-(4-nitrobenzoyl)piperazin-1-yl)phenyl)-N-phenethylsulfamoyl)benzofuran-2-carboxylic acid], 0.1 to 10 µM. The same measure, in the same setting: with `CC(=O)c1ccc(C(=O)N2CCN(c3ccccc3N(CCc3ccccc3)S(=O)(=O)c3ccc4oc(C(=O)O)c(C)c4c3)CC2)cc1` [Example F27-S115, 5-(N-(2-(4-(4-acetylbenzoyl)piperazin-1-yl)phenyl)-N-phenethylsulfamoyl)-3-methylbenzofuran-2-carboxylic acid] the figure was 0.1 to 10 µM; with `Cc1c(C(=O)O)oc2ccc(S(=O)(=O)N(CCc3ccccc3)c3ccccc3N3CCN(C(=O)c4cccnc4)CC3)cc12` [Example F27-S116, 3-methyl-5-(N-(2-(4-nicotinoylpiperazin-1-yl)phenyl)-N-phenethylsulfamoyl)benzofuran-2-carboxylic acid], 0.1 to 10 µM; with `Cc1c(C(=O)O)oc2ccc(S(=O)(=O)N(CCc3ccccc3)c3ccccc3N3CCN(C(=O)c4ccccn4)CC3)cc12` [Example F27-S117, 3-methyl-5-(N-phenethyl-N-(2-(4-pyridinecarbonylpiperazin-1-yl)phenyl)sulfamoyl)benzofuran-2-carboxylic acid], 0.1 to 10 µM. Consider `Cc1c(C(=O)O)oc2ccc(S(=O)(=O)N(CCc3ccccc3)c3ccccc3N3CCN(C(=O)c4cccs4)CC3)cc12` [Example F27-S118, 3-methyl-5-(N-phenethyl-N-(2-(4-(thiophene-2-carbonyl)piperazin-1-yl)phenyl)sulfamoyl)benzofuran-2-carboxylic acid], for which the IC50 fell in the range of 0.1 to 10 µM.

In turn, `Cc1c(C(=O)O)oc2ccc(S(=O)(=O)N(CCc3ccccc3)c3ccccc3N3CCN(C(=O)c4ccsc4)CC3)cc12` [Example F27-S119, 3-methyl-5-(N-phenethyl-N-(2-(4-(thiophene-3-carbonyl)piperazin-1-yl)phenyl)sulfamoyl)benzofuran-2-carboxylic acid] yielded an IC50 of 0.1 to 10 µM.

`C/C=C/C(=O)N1CCN(c2ccccc2N(CCc2ccccc2)S(=O)(=O)c2ccc3oc(C(=O)O)c(C)c3c2)CC1` [Example F27-S120, (E)-5-(N-(2-(4-(but-2-enoyl)piperazin-1-yl)phenyl)-N-phenethylsulfamoyl)-3-methylbenzofuran-2-carboxylic acid] gave an IC50 of 0.1 to 10 µM. In the case of `Cc1c(C(=O)O)oc2ccc(S(=O)(=O)N(CCc3ccccc3)c3ccccc3N3CCN(C(=O)c4ccco4)CC3)cc12` [Example F27-S121, 5-(N-(2-(4-(furan-2-carbonyl)piperazin-1-yl)phenyl)-N-phenethylsulfamoyl)-3-methylbenzofuran-2-carboxylic acid], the IC50 is 0.1 to 10 µM. Turning to `Cc1c(C(=O)O)oc2ccc(S(=O)(=O)N(CCc3ccccc3)c3ccccc3N3CCN(C(=O)C4CCCC4)CC3)cc12` [Example F27-S122, 5-(N-(2-(4-(cyclopentanecarbonyl)piperazin-1-yl)phenyl)-N-phenethylsulfamoyl)-3-methylbenzofuran-2-carboxylic acid], the IC50 fell in the range of 0.1 to 10 µM.

In general, IC50 refers to the midpoint of a concentration-inhibition curve. Read a high IC50 as a need for much substance.
